Reference: PMC8621570, “Mechanistic Studies of Antibiotic Adjuvants Reducing Kidney’s Bacterial Loads upon Systemic Monotherapy” (Pharmaceutics, 2021)

How the values were obtained:
[1] = Hydrophobicity by reversed phase HPLC elution; assay type: physicochemical; details: % acetonitrile required for elution in reversed phase HPLC, C18 column; rounded to nearest whole number
[2] = tested on: E. coli ΔacrAB mutant AG100A; experiment: microbe, parasite or virus in culture; assay type: cell-based, Escherichia coli; details: isogenic ΔacrAB mutant AG100A
Method: (§1) Bacteria:Escherichia coli strains: 25922 and 35218 (ATCC, Manassas, VA, USA), 14182 (clinical isolate), Ag100 and Ag100A [34] (ΔacrAB) are two K-12 isogenic mutantsand the engineered mutant ML-35p. Additional ESKAPE species tested: Klebsiella pneumoniae strains 1287 and 224 (clinical isolates), Acinetobacter baumannii ATCC strain 19606, Pseudomonas aeruginosa ATCC strains 9027 and 27853. Bacteria were grown in Luria–Bertani (LB) broth (0.5% NaCl, 0.5% yeast extract, 1% tryptone, pH = 7), except for E. coli ML-35p that was grown in tryptic-soy broth.
(§2) Peptide self-assembly was determined by static light scattering measurements as described. Hemolysis was determined by measuring hemoglobin leakage from washed human RBCs, as described. Minimal inhibitory concentration (MIC) was determined using the microdilution assay, as described. Bactericidal kinetics were determined by mixing bacteria with rifampin, OAC, or their combinations, as described. Data were obtained from three independent assays performed in duplicate.
(§3) The wild-type E. coli strain AG100 and its isogenic ΔacrAB mutant AG100A were used to determine the MIC of OACs and of two known acrAB-TolC substrates: the AMP LL-37 and the macrolide antibiotic erythromycin that are normally inefficient against GNB.

E. coli strain AG100 = experiment: microbe, parasite or virus in culture; assay type: cell-based, Escherichia coli; details: strain AG100
Method: as §1, §2, §3

E. coli UPEC CFT073 = experiment: Urinary tract infection model; assay type: in vivo, mouse
Method: Animals: All animal studies were performed using male ICR mice (25 ± 2 gr). The Technion Animal Care and Use committee approved all procedures, care, and handling of animals. Ethics approval codes: IL0800519, IL0640421, IL0550618, IL1811217.
For efficacy assessments, three infection models were used including one with topical treatment and two with systemic treatment. • Excisional skin wound infection model: mice were anesthetized by intraperitoneal administration of a mixture of ketamine 100 mg/kg and xylazine 5 mg/kg in PBS and their backs shaved with electric clippers. The following day mice were similarly anesthetized and were administrated (S.C) 0.05 mg/kg buprenorphine (for pain relief). A 5 mm diameter piece of skin was removed from the middle of the shaved back, with sterile biopsy punch resulting in a full-thickness injury. A total of 20 µL of a mid-logarithmic culture, containing 5 × 10^6 CFU P. aeruginosa 27853 were applied on the wound. Then, 15 min after inoculation, about 50 µL of hypromellose gel (prepared as described) containing OAC, antibiotic, or their combination were applied on the skin and covered with a piece of medical tape. As a control, the vehicle (drug-free gel) was similarly applied on the skin. After a treatment period of 4 h, about 8 mm diameter of skin surrounding the infected area was removed, suspended in PBS, homogenized, serially diluted 10-fold, and plated for CFU enumeration. The number of viable bacteria was determined after overnight incubation at 37 °C. The lower limit of detection was 50 CFU/wound. • Thigh infection model (TI): mice were inoculated intramuscularly with 1 × 10^6 CFU/mouse of mid-logarithmic E. coli 25922 and treated subcutaneously 1 and 3 h after inoculation. Mice were sacrificed 24 h after infection, their thighs excised, homogenized, serially diluted 10-fold, and plated for CFU enumeration. The number of viable bacteria was determined after overnight incubation at 37 °C. […] The number of viable bacteria was determined after overnight incubation at 37 °C. […]

With `CCCCC=CCCCCCCCC(=O)N[C@@H](CCCN)C(=O)N[C@@H](CCCN)C(=O)NCCCCCCCCCC(=O)N[C@@H](CCCN)C(N)=O` [C14(ω5)OOc10O] the “H, hydrophobicity” value [1] was 50%, the “MIC, Ag100A” value [2] was 6.2 µM and the MIC (E. coli strain AG100) was 25 µM. For the same compound, the “Effect on bladder CFU counts” value (E. coli UPEC CFT073; 12.5 mg/kg S.C at 1 and 6 h post-infection, CFU at 24 h) was “not those of the bladder”, the “Reduction of kidneys' CFU counts” value (E. coli UPEC CFT073; 12.5 mg/kg S.C at 1 and 6 h post-infection, CFU at 24 h, 10 mice per group, dead control mice not included) was > 2 orders of magnitude and the “Gap of kidneys' CFU counts with the treated group” value (E. coli UPEC CFT073; as above, if the two dead PBS-treated control mice were taken into consideration) was “four”.
